Assay results: ChEMBL document CHEMBL1144736, “Novel inhibitors of 17beta-hydroxysteroid dehydrogenase type 1: templates for design” (Bioorg Med Chem, 2008)
Calls of active or inactive are those of the source. The rule behind the calls is not given here.

Columns and labels:
Assay type in all cases: cell-based
[1] = target: T1, 17-beta-hydroxysteroid dehydrogenase type 1 (Homo sapiens, UniProt P14061); assay: Inhibition of 17beta-HSD1 expressed in intact human T47D cells after 30 mins
T1 sequence (P14061 whole entry): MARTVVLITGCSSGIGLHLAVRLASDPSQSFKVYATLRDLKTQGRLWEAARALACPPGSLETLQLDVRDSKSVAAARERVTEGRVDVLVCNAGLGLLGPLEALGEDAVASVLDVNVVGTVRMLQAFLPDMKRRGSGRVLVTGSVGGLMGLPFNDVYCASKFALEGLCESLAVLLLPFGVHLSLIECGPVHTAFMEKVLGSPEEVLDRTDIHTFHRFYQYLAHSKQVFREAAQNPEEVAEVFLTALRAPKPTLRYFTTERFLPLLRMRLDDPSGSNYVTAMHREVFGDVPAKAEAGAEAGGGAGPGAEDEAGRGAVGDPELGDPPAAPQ

[2] = target: T2, 17-beta-hydroxysteroid dehydrogenase type 1 (Homo sapiens) (UniProt P14061); assay: Inhibition of 17beta-HSD1 expressed in intact human T47D cells at 10 uM after 30 mins
T2 sequence (whole entry): T1 sequence (P14061 whole entry)

[3] = target: T2, 17-beta-hydroxysteroid dehydrogenase type 1 (Homo sapiens); assay: Inhibition of 17beta-HSD1 expressed in intact human T47D cells at 1 uM after 30 mins
[4] = target: T3, 17-beta-hydroxysteroid dehydrogenase type 2 (Homo sapiens) (UniProt P37059); assay: Inhibition of 17beta-HSD2 expressed in intact human MDA-MB-231 cells at 10 uM after 3 hrs
T3 sequence (whole entry): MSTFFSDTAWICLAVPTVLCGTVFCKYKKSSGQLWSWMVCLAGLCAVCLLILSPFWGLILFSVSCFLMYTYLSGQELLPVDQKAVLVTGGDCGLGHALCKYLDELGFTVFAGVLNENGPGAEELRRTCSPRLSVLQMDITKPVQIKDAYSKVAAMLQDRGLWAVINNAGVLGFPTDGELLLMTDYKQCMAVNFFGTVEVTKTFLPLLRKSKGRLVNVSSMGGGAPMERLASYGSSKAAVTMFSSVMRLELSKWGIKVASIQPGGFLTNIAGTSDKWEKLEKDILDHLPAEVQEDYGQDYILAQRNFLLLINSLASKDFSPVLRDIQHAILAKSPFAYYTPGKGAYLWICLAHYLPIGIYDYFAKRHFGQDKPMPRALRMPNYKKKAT

Row | SMILES | IC50 [1] | inhibition [2] | Activity [2] | other results
1 | CC(=O)c1ccc(-c2ccc(O)cc2)cc1 | 3.7 µM | 97% | – | –
2 | CCc1cc(-c2ccc(C(=O)CCC(=O)NCCc3cccnc3)c(C)c2)ccc1O | – | – | – | inhibition [3]: 15%
3 | CCc1cc(-c2ccc(C(C)=O)cc2)ccc1O | 5.4 µM | 73% | – | inhibition [4]: 51%
4 | CCc1cc(-c2ccc(C(=O)CCC(=O)NCc3cccnc3)c(C)c2)ccc1O | – | – | – | inhibition [3]: 21%
5 | CCc1cc(-c2ccc(C(=O)CCC(=O)NCc3cccnc3)cc2)ccc1O | 3.7 µM | – | – | inhibition [4]: 12%; inhibition [3]: 24%
6 | CCc1cc(-c2ccc3c(c2)CC(CC(=O)NCc2cnc(C)cn2)C3=O)ccc1O (stereo not drawn) | – | – | – | Activity [3]: inactive
7 | CCc1cc2c(cc1O)CC[C@@H]1[C@@H]2CC[C@]2(C)C(=O)[C@@H](CC(=O)NCc3cccnc3)C[C@@H]12 | 0.027 µM | – | – | –
8 | CCc1cc(-c2ccc(C(=O)CCC(=O)NCc3ccccn3)cc2)ccc1O | – | – | – | Activity [3]: inactive
9 | CC(=O)c1ccc(-c2ccc(O)cc2C)cc1 | 3.7 µM | – | – | –
10 | CCc1cc(-c2ccc3c(c2)CC(CC(=O)NCc2ccccn2)C3=O)ccc1O (stereo not drawn) | – | – | – | Activity [3]: inactive
11 | CCc1cc(-c2ccc(C(=O)CC(C)(C)C(=O)NCc3cccnc3)cc2)ccc1O | 1.8 µM | – | – | inhibition [3]: 38%
12 | CC(=O)c1ccc(-c2ccc3c(c2)OCO3)cc1 | – | – | inactive | –
13 | COc1ccc(-c2ccc(C(C)=O)cc2)cc1 | – | – | inactive | –
14 | CCc1cc(-c2ccc(C(=O)CC(C)(C)C(=O)NCCc3cccnc3)cc2)ccc1O | – | – | – | inhibition [3]: 15%
15 | CC(=O)c1ccc(-c2ccc(O)cc2)c(C)c1 | – | – | inactive | –
16 | CCc1cc(-c2ccc(C(=O)CCC(=O)NCCO)cc2)ccc1O | – | – | – | inhibition [3]: 23%
17 | CCc1cc(-c2ccc(O)cc2)ccc1C(C)=O | 9.9 µM | 71% | – | –
18 | CCc1cc(-c2ccc(C(=O)CC(C)(C)C(=O)NCc3cccnc3)cc2)ccc1OC | – | – | – | inhibition [3]: 17%
19 | CCc1cc(-c2ccc(C(=O)CCC(=O)NCCc3cccnc3)cc2)ccc1O | – | – | – | inhibition [3]: 17%

Continued, in another order:

Row | IC50 [1] | inhibition [2] | Activity [2] | SMILES | other results
20 | – | – | inactive | COc1ccc2c(c1)Cc1cc(C(C)=O)ccc1-2 | –
21 | 1.7 µM | 81% | – | O=C1CCc2cc(-c3ccc(O)cc3)ccc21 | inhibition [4]: 17%
22 | 2 µM | 86% | – | CCc1cc(-c2ccc3c(c2)CCC3=O)ccc1O | inhibition [4]: 48%
23 | 8.3 µM | 71% | – | CCc1cc(-c2ccc3c(c2)CCCC3=O)ccc1OC | –
24 | 15.6 µM | 89% | – | O=C1CCCc2cc(-c3ccc(O)cc3)ccc21 | –
25 | – | 51% | – | CCc1cc(-c2ccc3c(c2)CCCC3=O)ccc1O | –
26 | – | – | inactive | COc1ccc(-c2ccc(C(C)=O)cc2)c(C)c1 | –
27 | – | – | inactive | COc1ccc(-c2ccc(C(C)=O)cc2C)cc1 | –
28 | – | 56% | – | COc1ccc(-c2ccc3c(c2)CCC3=O)cc1F | –
29 | – | – | inactive | COc1ccc(-c2ccc3c(c2)CCCC3=O)cc1 | –
30 | 4.8 µM | 86% | – | CC(=O)c1ccc2c(c1)Cc1cc(O)ccc1-2 | –
31 | 2.9 µM | 75% | – | O=C1CCc2cc(-c3ccc(O)c(F)c3)ccc21 | inhibition [4]: 24%
32 | – | – | inactive | CCc1cc(-c2ccc(C(C)=O)cc2)ccc1OC | –
33 | – | – | inactive | CCc1cc(-c2ccc3c(c2)CCC3=O)ccc1OC | –
34 | 4.7 µM | – | – | CCc1cc(-c2ccc3c(c2)CC(CC(=O)NCc2cccnc2)C3=O)ccc1O (stereo not drawn) | inhibition [3]: 39%
35 | – | – | inactive | O=C1CCc2cc(-c3ccccc3)ccc21 | –
36 | – | – | inactive | COc1ccc(-c2ccc3c(c2)CCC3=O)cc1 | –
